Data reported in patent US20250368653A1, “SOLID FORMS COMPRISING (S)-7-(1-ACRYLOYLPIPERIDIN-4-YL)-2-(4-PHENOXYPHENYL)-4,5,6,7-TETRAHYDROPYRAZOLO[1,5-A]PYRIMIDINE-3-CARBOXAMIDE, AND OXALIC ACID, COMPOSITIONS AND METHODS OF USE THEREOF” (BeiGene Switzerland GmbH, priority 2022, published 2025).
Converted amounts (≈) assume the structure as drawn. Like-named read-outs stand apart in the source and are kept apart here.

What was measured:
[1] = Solubility experiment in water; format: physicochemical; settings: solid loading 2 mg/mL; for solubility at 1 h / solubility at 2 h / solubility at 4 h / solubility at 24 h: thermodynamic from solid, read-out: S: solubility
Experimental: Table 7 and Table 8 provide summaries of solubility experiment in water at 37° C. and 25° C., respectively.

DVS water uptake = format: physicochemical; settings: 25° C./80% RH

| FC: solid form change ([1]; 25° C., 1 hr) | S: solubility ([1]; 25° C., 1 hr) [µg/mL] | pH ([1]; 25° C., 1 hr) | FC: solid form change ([1]; 25° C., 2 hrs) | S: solubility ([1]; 25° C., 2 hrs) [µg/mL] | pH ([1]; 25° C., 2 hrs) | FC: solid form change ([1]; 25° C., 4 hrs) | S: solubility ([1]; 25° C., 4 hrs) [µg/mL] | pH ([1]; 25° C., 4 hrs) | FC: solid form change ([1]; 25° C., 24 hrs) | S: solubility ([1]; 25° C., 24 hrs) [µg/mL] | pH ([1]; 25° C., 24 hrs) | FC: solid form change ([1]; 37° C., 1 hr) | pH ([1]; 37° C., 1 hr) | FC: solid form change ([1]; 37° C., 2 hrs) | pH ([1]; 37° C., 2 hrs) | FC: solid form change ([1]; 37° C., 4 hrs) | pH ([1]; 37° C., 4 hrs) | FC: solid form change ([1]; 37° C., 24 hrs) | pH ([1]; 37° C., 24 hrs) | Structure (SMILES) | further results |
| --- | --- | --- | --- | --- | --- | --- | --- | --- | --- | --- | --- | --- | --- | --- | --- | --- | --- | --- | --- | --- | --- |
| No | 74 | 8.55 | No | 81 | 8.57 | No | 78 | 8.51 | No | 72 | 7.68 | Gel | 8.78 | Gel | 8.77 | Gel | 8.60 | Gel | 7.74 | C=CC(=O)N1CCC([C@@H]2CCNc3c(C(N)=O)c(-c4ccc(Oc5ccccc5)cc4)nn32)CC1 [Freebase Amorphous] | S: solubility ([1]; 37° C., 1 hr): 89 µg/mL; S: solubility ([1]; 37° C., 2 hrs): 89 µg/mL; S: solubility ([1]; 37° C., 4 hrs): 84 µg/mL; S: solubility ([1]; 37° C., 24 hrs): 78 µg/mL |
| No |  | 3.36 | No |  | 3.09 | No |  | 3.01 | No |  | 2.76 | Gel | 3.22 | Gel | 2.97 | Gel | 3.01 | Gel | 2.74 | C=CC(=O)N1CCC([C@@H]2CCNc3c(C(N)=O)c(-c4ccc(Oc5ccccc5)cc4)nn32)CC1 [Form 1] | solubility at 1 h ([1]; 25 °C, 25° C., 1 hr): 75 µg/mL (≈ 159 µM); solubility at 2 h ([1]; 25 °C, 25° C., 2 hrs): 78 µg/mL (≈ 165 µM); solubility at 4 h ([1]; 25 °C, 25° C., 4 hrs): 77 µg/mL (≈ 163 µM); solubility at 24 h ([1]; 25 °C, 25° C., 24 hrs): 75 µg/mL (≈ 159 µM); solubility at 1 h ([1]; 37 °C, 37° C., 1 hr): 90 µg/mL (≈ 191 µM); solubility at 2 h ([1]; 37 °C, 37° C., 2 hrs): 88 µg/mL (≈ 187 µM); solubility at 4 h ([1]; 37 °C, 37° C., 4 hrs): 73 µg/mL (≈ 155 µM); solubility at 24 h ([1]; 37 °C, 37° C., 24 hrs): 82 µg/mL (≈ 174 µM); hygroscopicity (DVS water uptake): non hygroscopic; water uptake (DVS water uptake): lower than 0.2% |
| No | 44 | 8.66 | No | 46 | 8.66 | No | 40 | 8.57 | No | 47 | 7.85 | No | 8.76 | No | 8.77 | No | 8.63 | No | 7.67 | C=CC(=O)N1CCC([C@@H]2CCNc3c(C(N)=O)c(-c4ccc(Oc5ccccc5)cc4)nn32)CC1 [Freebase Form A] | S: solubility ([1]; 37° C., 1 hr): 55 µg/mL; S: solubility ([1]; 37° C., 2 hrs): 57 µg/mL; S: solubility ([1]; 37° C., 4 hrs): 59 µg/mL; S: solubility ([1]; 37° C., 24 hrs): 56 µg/mL |
